The source of these data is patent US20080057129A1, “Drug microparticles” (priority 2006, published 2008).

In series [1] the test system is antimicrobial peptide gene expression. The conditions noted are these: Wang et al., J. Immunol. 2004; cited from earlier work.
A short description of series [2]: Solubility of drug in menthol melt. It counts as physicochemical. The note with it: for Solubility: in menthol melt. On the procedure:
Menthol (10 grams) was melted on a stirring hot plate with magnetic stirring, then heated to the desired temperature indicated in Table 1. The desired drug was added in small increments (approximately 0.1 grams) and stirred to obtain a clear solution. The desired drug was added in increments until no more drug dissolved in the menthol.
Menthol (10 grams) was melted on a stirring hot plate with magnetic stirring, then heated to the desired temperature indicated in Table 1. The Azithromycin was added in small increments (0.1 grams) and stirred to obtain a clear solution. The drug was added in increments until no more drug dissolved in the menthol.

Regarding `C=C1/C(=C\C=C2/CCC[C@]3(C)[C@@H]([C@H](C)CCCC(C)(C)O)CC[C@@H]23)C[C@@H](O)C[C@@H]1O` [calcitriol, 1,25-dihydroxyvitamin D3], the “induction of antimicrobial peptide gene expression” value in series [1] is recorded as “inducer of the antimicrobial peptide gene expression”.

For `CC[C@H]1OC(=O)[C@H](C)[C@@H](O[C@H]2C[C@@](C)(OC)[C@@H](O)[C@H](C)O2)[C@H](C)[C@@H](O[C@@H]2O[C@H](C)C[C@H](N(C)C)[C@H]2O)[C@](C)(O)C[C@@H](C)CN(C)[C@H](C)[C@@H](O)[C@]1(C)O` [Azithromycin], the Solubility in series [2] (63 °C) stood at 40.0 % w/w.

In the case of `O=C(O)c1ccccc1O` [Salicylic acid], in series [2] (43 °C), the Solubility stood at 16.0 % w/w.

For `CC(=O)O[C@@]12CO[C@@H]1C[C@H](O)[C@@]1(C)C(=O)[C@H](O)C3=C(C)[C@@H](OC(=O)[C@H](O)[C@@H](NC(=O)OC(C)(C)C)c4ccccc4)C[C@@](O)([C@@H](OC(=O)c4ccccc4)[C@H]21)C3(C)C` [Docetaxel], the “solubility in the menthol melt” value in series [2] (without the additives PEG 6000 and Poloxamer 407) is “soluble”.

As to `CCC(C)n1ncn(-c2ccc(N3CCN(c4ccc(OCC5COC(Cn6cncn6)(c6ccc(Cl)cc6Cl)O5)cc4)CC3)cc2)c1=O` (stereo not drawn) [Itraconazole], the solubility in menthol in series [2] (60° C.) is listed as 1%. In series [2] (61 °C), the Solubility is 1.0 % w/w.
